Data published in patent publication US10731222B2 (RNA Diagnostics Inc., priority 2013, dated 2020).

Columns and labels:
[1] = tested on: cytokeratin 18 (M30, M65); assay: M30/M65 Apoptosense assay, Group 2; type: in vivo, human; conditions: 14 days after ZA; baseline 335.3 U/L; p=0.039
Method: Blood samples were collected from patients at the same time-point as indicated for Group 2 into the K2EDTA anticoagulant tubes, and then centrifuged at 1,500 g for 10 min to obtain plasma. Levels of M30 and M65 were measured in blood samples drawn at 8 am before starting ZA administration and thereafter at 48 hours and at 14 days after the initial treatment (FIG. 9).
M30 and M65 measurements were tested in triplicate accordingly to the manufacturers' instructions (PEVIVA AB, Bromma, Sweden) as previously described in detail.
The M30 is a biomarker assay for the quantitative determination of caspase-cleaved cytokeratin 18 (CK18) released from apoptotic carcinoma cells into blood and may estimate the tumour response to the treatment. Total CK18 (cleaved and non cleaved) is detected by M65. The levels of M30 and M65 were determined on blood samples of metastatic breast cancer patients (Group 2) collected at baseline, at 48 hours and at 14 days after ZA administration at the same time point of CTCs evaluation to assess apoptosis and cell death induced by the treatment. […] M65 levels were statistically significant higher after drug administration (14 days) when compared to the baseline (370.69 U/L versus 335.3 U/L; range 174.2-1646.5 versus 113.7-596.4; p=0.039).

[2] = Treatment tolerability of single-dose ZA; type: in vivo, human
Method: (§1) Patients received a single dose of 4 mg diluted in 100 ml saline, intravenously, in about 15 mins of ZA without any other active concomitant treatments (i.e chemotherapy or endocrine therapy) (Groups 1 and 2). In patients with locally advanced disease, the biological evaluations were performed at baseline on the diagnostic biopsy and repeated after 14 days from ZA administration on a second tru-cut biopsy (Group 1) whereas in patients with bone metastatic disease, CTCs counts along with serological markers were performed before ZA administration, at 48 hours and at 14 days after treatment (Group 2) (FIG. 9).
Patients were evaluated by physical examination, and blood samples were obtained for laboratory analysis.

[3] = tested on: locally advanced breast cancer; assay: RNA Disruption Index (RDI) of tumour samples before and 14 days after ZA, Group 1; type: in vivo, human; conditions: 14 days after single ZA; baseline 0.63; 14 matched pairs; p<0.0076
Method: Tumour samples were shipped in a RNA preservative to Rna Diagnostics (Sudbury, Canada) where they were sub-sectioned to reduce the amount of tissue for RNA isolation based on gross pathology. RNA was then isolated using the Qiagen miRNeasy kit from each portion of the tumour and the RNA analysed using an Agilent Bioanalyzer 2100. […] Mean RDI values were calculated for each tumour sample.

[4] = tested on: locally advanced breast cancer; assay: ATP content of tumour biopsies (ATPlite luminescence), Group 1; type: in vivo, human; conditions: tru-cut after ZA; 230.93 at incisional biopsy; 24 matched pairs; p=0.79
Method: ATP content was assayed as previously described using a luminescence assay system (ATPlite, PerkinElmer) according to manufacturing instructions. Briefly, frozen tumor biopsies were minced and homogenized in ice-cold lysis solution provided with the kit using a homogenizer. Membranes and cellular debris were eliminated by centrifuging at 12,000×g for 10 min at 4° C. Protein concentrations were determined by DC protein-assay (Bio-Rad Laboratories). Equal amounts of tissue proteins from each sample (30 μg/50 μl of lysis solution) were incubated with 50 μl of luciferine/luciferase substrate solution and analyzed for ATP content by using a Luminescence Counter (Enspire, PerkinElemer). ATP concentrations were calculated on the basis of an ATP standard-curve and expressed as pmol/mg protein.

[5] = tested on: locally advanced breast cancer; assay: Immunohistochemistry of tumour markers (Ki67, CD31, p53, bcl-2, caspase 3) before and 14 days after single-dose ZA, Group 1; type: in vivo, human
Method: Enrolled patients received 4 mg single dose of ZA (Zometa®, Novartis, Milan, Italy) before starting any treatment (biological window of 14 days) (FIG. 9). Markers of tumor proliferation/death were tested immunohistochemically and at ATP and RNA level in tumour specimens obtained before and after ZA administration in those patients with locally advanced breast cancer (Group 1) and the count of circulating tumour cells (CTCs) by CellSearch System along with serological markers as marker of tumor dissemination were carried out in metastatic patients (Group 2).
as §1, with “In” for “Patients received a single dose of 4 mg diluted in 100 ml saline, intravenously, in about 15 mins of ZA without any other active concomitant treatments (i.e chemotherapy or endocrine therapy) (Groups 1 and 2). In”
Immunohistochemical evaluation was performed on formalin-fixed paraffin-embedded tumor samples obtained at diagnosis and at 14th days on tru-cut. ER, PgR, overexpression of HER2 and Ki67, CD31 with p53 and bcl-2 staining were performed at the Pathology Unit of the Azienda Ospedaliera-Istituti Ospitalieri of Cremona (Italy). The immunohistochemical methodology is fully described elsewhere. The Caspase 3 immunohistochemistry was performed at the Pathology Unit of Peter MacCallum Cancer Centre (Australia); the used methodology followed that reported by others evaluating protein expression in breast tumours.

[6] = tested on: breast cancer T2-4, N 0-1, M0; assay: Early response studies: RNA Disruption (RDI) 15 days after initiation of therapy; type: in vivo, human
From the text: The Limit of Detection for RDI s RDI=0.3. RDI=1.5, 5 times the Level of Detection, was used as a provisional baseline cut off between nonresponders and responders.

[7] = tested on: circulating tumour cells (CTCs); assay: Circulating tumor cells (CTCs) assay, CellSearch, Group 2; type: in vivo, human; conditions: for median CTC/M30+ve: basal 2
Method: as §1
The enumeration of CTC in whole blood was done by the CellSearch System according to manufacturers instruction as described by Cristofanilli et al.. The identification and count of CTCs was performed using the CellSearch Analyzer, a semi-automated fluorescence-based microscopy system that permits computer-generated reconstruction of cellular images. The criteria used are round or oval morphology, a DAPI positivity, positivity for cytokeratin and negative staining for CD45. Results are expressed as number of cells/7.5 ml of blood. Quality control was maintained via the CellSearch CTC Control Kit used to standardize reagents, instruments, and operator technique.
To quantify the fraction of apoptotic CTC, M30-positive CTC were detected integrating CTC assay with a specific mAb (M30 PEVIVA AB, Bromma, Sweden), recognizing the M30 neoepitope of cytokeratin 18 (CK18), analyzed with the fourth filter of the CellSearch System; results were expressed as the total number of CTC and M30-positive CTC per 7.5 mL of blood as described elsewhere.

[8] = cited from earlier work
[9] = tested on: A2780 ovarian cancer cells; assay: RNA disruption in drug-treated A2780 cells (Agilent Bioanalyzer electropherogram, RDI); type: cell-based, human; conditions: for response of cells in culture to the agent: dose- and time-dependent; for effect of caspase inhibitor on docetaxel-induced RNA disruption: 10 uM inhibitor with 0.2 uM docetaxel
Method: RNA was isolated from ovarian cancer cell line A2780 cells which had been treated with 10 μM docetaxel in 50% media or 20 μM epirubicin, each in 50% media. Cells were treated with the chemotherapeutic for 24 hours at 37° C. Isolated RNA was separated by microcapillary electrophoresis using the Agilent 2100 Bioanalyzer.
Cells were plated and treated with docetaxel concentrations ranging from 0.001-40 μM for 24 to 72 hours to assess the effect on cell number, RNA content, and integrity (measured using a Bioanalyzer 2100 from Agilent Technologies, Inc.).
A2780 cells treated for up to 72 hours with docetaxel at 0.005 uM and 0.2 uM, were analyzed for the amount of RNA per cell. RNA was isolated and electophoretically separated using an Agilent Bioanalyzer.
RNA was isolated and electrophoretically separated on an Agilent Bioanalyzer. As shown in FIG. 24D bands appeared just below the 28S (e.g. intermediate) and 18S bands (e.g. low banding region) at 0.005 uM and peaked at 0.2 uM.
A time course experiment was conducted in A2780 cells. Cells were treated for up to 72 hours with docetaxel at 0.005 uM and 0.2 uM. RNA was isolated and run on an Agilent Bioanalyzer.
The effect of a caspase inhibitor on RNA integrity changes was next assessed. Cells were treated with or without docetaxel at a concentration of 0.2 uM in the presence or absence of the caspase inhibitor Q-DEVD-OPH (Biovision Laboratories) at a concentration of 10 uM.

[10] = tested on: Colon adenocarcinoma cells LS174T; assay: RNA disruption in colon adenocarcinoma cells LS174T; type: cell-based; conditions: 24 hr
Method: Colon adenocarcinoma cells LS174T were incubated with Sunitinib, a receptor tyrosine kinase inhibitor. RNA was isolated from the cells and analyzed using an Agilent Bioanalyzer.
RNA was isolated from the cells and analyzed using an Agilent Bioanalyzer.

[11] = tested on: docetaxel-resistant A2780DXL cells; assay: RNA disruption in docetaxel-resistant cells; type: cell-based; conditions: in combination with docetaxel
Method: (§2) A docetaxel A2780 resistant cell line was made as described in Li et al., Int. J. Mol. Med 2004 14(20): 257-264.
A time course experiment was conducted. Sensitive parental and docetaxel resistant A2780 cells were treated with docetaxel for 24 hours. RNA was isolated and run on an Agilent Bioanalyzer.
The a\Ability of RDA to detect potentiators of docetaxel (Dxl) sensitivity. […] Thus, RDA may be used to screen for potentiators of chemotherapy drug cytotoxicity.

[12] = tested on: docetaxel-resistant A2780DXL cells; assay: Clonogenic assay, docetaxel-resistant cells; type: cell-based; conditions: clonogenic assay
From the text: as §2
RDA like clonogenic assays can be used to identify drugs that are cytotoxic (FIG. 24C iv). […] The cell lines have widely differing sensitivity to docetaxel in a clonogenic assay, with IC50 values differing by over three orders of magnitude.

[13] = tested on: Colon adenocarcinoma cells SW480; assay: RNA disruption in colon adenocarcinoma cells SW480; type: cell-based; conditions: 72 hr
Method: Colon adenocarcinoma cells SW480 were incubated with Epirubicin, a DNA synthesis inhibitor. RNA was isolated from the cells and analyzed using an Agilent Bioanalyzer.

In the case of `O=P(O)(O)C(O)(Cn1ccnc1)P(=O)(O)O` [ZA, zoledronic acid], the M65 level [1] is reported as 370.69 U/L, the “levels of bone-turnover markers (calcium, PTH, BALP, VIT-D3(1-25))” value ([2]; in vivo) is reported as “did not lead significant difference” and the “osteonecrosis of the jaw or other significant adverse events” value ([2]; in vivo) is reported as “No patient developed”. For the same compound, the tolerability ([2]; single 4 mg i.v. dose) was “well tolerated”, the “mean serum creatinine level” value ([2]; with treatment) was “did not vary” and the RDI level [3] was 1.21. For the same compound, the “average ATP value” [4] was 216.57 pmol/mg protein, the “specimens with increased bcl-2” value ([5]; 1 of 31) was 3.2% and the “specimens with increased p53” value ([5]; 1 of 31) was 3.2%. For the same compound, the “specimens with decreased p53” value ([5]; 3 of 31) was 9.7%, the “patients with stable Ki67 expression” value ([5]; 5 of 33 patients, 14 days) was 15.2% and the “patients with increase in Ki67 expression” value ([5]; 6 of 33 patients, 14 days) was 18.2%. The “patients with decrease in Ki67 expression” value ([5]; 22 of 33 patients, 14 days) was 66.6%, the “specimens with unchanged p53” value ([5]; 27 of 31) was 87.1% and the “specimens with decreased bcl-2” value ([5]; 30 of 31) was 96.8%. For the same compound, the “median Ki67” value ([5]; 14 days after ZA infusion, basal 18%, n=33, p=0.0032) was 16%, the “bcl-2 expression (median)” value ([5]; 14 days, baseline 100%, p<0.00001) was 40% and the “median CD31 expression” value ([5]; after treatment (14 days), basal 27%, p=0.0001) was 16%. The “Patients Responding (RDI above Baseline RDI = 1.5)” value [6] was 8 patients, the “RDI Range, Responding Patients” value [6] was 1.8-8.9 and the “median alive CTC” value ([7]; 48 hours after ZA infusion, basal 12, p=0.0012) was 4 cells/7.5 ml of blood. The “median CTC/M30+ve” value ([7]; 48 hours, p=0.7065) was 2 cells/7.5 ml of blood, the “median CTC/M30+ve” value ([7]; 14 days, p=0.018) was 3 cells/7.5 ml of blood and the “plasma concentration relative to Cmax” value ([8]; 24 h post-dose) was < 1 % of Cmax. The “dose retained in the skeleton or in fat tissue” value ([8]; in vivo) was 60% and the “dose excreted unmetabolized in the urine” value ([8]; within 24 hours after administration) was “up to 41%”.

In the case of `CC(=O)O[C@H]1C(=O)[C@@]2(C)[C@H]([C@H](OC(=O)c3ccccc3)[C@]3(O)C[C@H](OC(=O)[C@H](O)[C@@H](NC(=O)c4ccccc4)c4ccccc4)C(C)=C1C3(C)C)[C@]1(OC(C)=O)CO[C@@H]1C[C@@H]2O` [paclitaxel], the “response of cells in culture to the agent” value (from here on “response of cells in culture”) [9] is reported as “RNA disruption”.

For `CCN(CC)CCNC(=O)c1c(C)[nH]c(/C=C2\C(=O)Nc3ccc(F)cc32)c1C` [Sunitinib], the “concentration at which RNA Disruption is evident” value [10] was 54 mM.

With `N.N.O=C([O-])C1(C(=O)[O-])CCC1.[Pt+2]` [carboplatin] the “response of cells in culture” value [9] was “RNA disruption”.

With Cyclosporine A the “effect on docetaxel-induced RNA disruption (RDI)” value [11] was “restored docetaxel's ability to induce RNA disruption” and the “effect on docetaxel sensitivity” value [12] was “restores sensitivity to docetaxel”.

With Q-DEVD-OPH the “effect of caspase inhibitor on docetaxel-induced RNA disruption” value [9] was “reduces the loss of 28S and 18S bands at 72 hr” and the “effect of caspase inhibitor on docetaxel-induced RNA disruption” value ([9]; listed as Q-DEVD-Oph) was “significantly reduced RNA disruption”.

For `COc1cccc2c1C(=O)c1c(O)c3c(c(O)c1C2=O)C[C@@](O)(C(=O)CO)C[C@@H]3O[C@H]1C[C@H](N)[C@@H](O)[C@H](C)O1` [epirubicin], the “concentration at which RNA Disruption is evident” value [13] was 0.5 mM, the electropherogram pattern ([9]; 20 μM in 50% media, 24 hours, 37° C.) was “intermediate bands between the 18S and 28S peaks” and the “response of cells in culture” value [9] was “RNA disruption”.
